Source: patent US8563542B2 (Cyclacel Limited, priority 2007, dated 2013)
pIC50, pKi: −log10 of the molar value. Counter-ions that a name gives are not always drawn.

target: PLK1 (Homo sapiens, UniProt P53350); experiment: PLK1 protein kinase assay (CDC25C phosphorylation, [γ-32P]-ATP); type: biochemical; conditions: not given
Sequence (P53350 whole entry): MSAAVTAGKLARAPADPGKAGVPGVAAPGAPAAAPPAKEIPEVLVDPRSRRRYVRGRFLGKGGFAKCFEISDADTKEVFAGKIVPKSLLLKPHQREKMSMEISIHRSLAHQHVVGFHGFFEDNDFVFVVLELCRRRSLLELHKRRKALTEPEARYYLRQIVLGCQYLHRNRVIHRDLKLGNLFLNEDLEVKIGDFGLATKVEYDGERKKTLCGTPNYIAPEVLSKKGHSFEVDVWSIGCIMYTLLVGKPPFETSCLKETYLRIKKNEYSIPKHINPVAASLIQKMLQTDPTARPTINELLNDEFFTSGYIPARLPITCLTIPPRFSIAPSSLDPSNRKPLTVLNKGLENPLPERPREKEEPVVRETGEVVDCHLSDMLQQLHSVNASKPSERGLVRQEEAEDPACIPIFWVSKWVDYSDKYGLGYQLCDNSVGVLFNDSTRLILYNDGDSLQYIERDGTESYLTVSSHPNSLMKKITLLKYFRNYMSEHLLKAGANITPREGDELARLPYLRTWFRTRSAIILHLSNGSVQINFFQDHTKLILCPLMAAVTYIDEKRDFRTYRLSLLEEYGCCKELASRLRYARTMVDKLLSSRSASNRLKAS

SMILES	pIC50
COc1cc(C(=O)NC2CCN(C)CC2)ccc1Nc1ncc2c(n1)N(C1CCCC1)CC(C)C(=O)N2C (stereo not drawn) [compound 20, 4-(9-Cyclopentyl-5,7-dimethyl-6-oxo-6,7,8,9-tetrahydro-5H-pyrimido[4,5-b][1,4]diazepin-2-ylamino)-3-methoxy-N-(1-methyl-piperidin-4-yl)-benzamide]	> 7.00
COc1cc(C(=O)NC2CCN(C)CC2)ccc1Nc1ncc2c(n1)N(C1CCCC1)C(C)CC(=O)N2C (stereo not drawn) [compound 33, 4-(9-Cyclopentyl-5,8-dimethyl-6-oxo-6,7,8,9-tetrahydro-5H-pyrimido[4,5-b][1,4]diazepin-2-ylamino)-3-methoxy-N-(1-methyl-piperidin-4-yl)-benzamide]	> 6.00

same assay, conditions: Table 1; read-out: PLK1 IC50

SMILES	pIC50
COc1cc(C(=O)O)ccc1Nc1ncc2c(n1)N(C1CCCC1)C(C)CC(=O)N2 (stereo not drawn) [compound 3, 4-(9-Cyclopentyl-8-methyl-6-oxo-6,7,8,9-tetrahydro-5H-pyrimido[4,5-b][1,4]diazepin-2-ylamino)-3-methoxy-benzoic acid]	> 5.00
COc1cc(C(=O)O)ccc1Nc1ncc2c(n1)N(C1CCCC1)C(C)CC(=O)N2C (stereo not drawn) [compound 4, 4-(9-Cyclopentyl-5,8-dimethyl-6-oxo-6,7,8,9-tetrahydro-5H-pyrimido[4,5-b][1,4]diazepin-2-ylamino)-3-methoxy-benzoic acid]	> 5.00
COc1cc(C(=O)O)ccc1Nc1ncc2c(n1)N(C1CCCCC1)C(C)CC(=O)N2 (stereo not drawn) [compound 5, 4-(9-Cyclohexyl-8-methyl-6-oxo-6,7,8,9-tetrahydro-5H-pyrimido[4,5-b][1,4]diazepin-2-ylamino)-3-methoxy-benzoic acid]	> 5.00
O=C1CCN(C2CCCCC2)c2nc(Nc3ccc(O)cc3)ncc2N1 [compound 10, 9-Cyclohexyl-2-(4-hydroxy-phenylamino)-5,7,8,9-tetrahydro-pyrimido[4,5-b][1,4]diazepin-6-one]	> 5.00
CC1CN(C2CCCC2)c2nc(Nc3ccc(O)cc3)ncc2NC1=O (stereo not drawn) [compound 11, 9-Cyclopentyl-2-(4-hydroxy-phenylamino)-7-methyl-5,7,8,9-tetrahydro-pyrimido[4,5-b][1,4]diazepin-6-one]	> 5.00
CC1CC(=O)N(C)c2cnc(Nc3ccc(O)cc3)nc2N1C1CCCC1 (stereo not drawn) [compound 13, 9-Cyclopentyl-2-(4-hydroxy-phenylamino)-5,8-dimethyl-5,7,8,9-tetrahydro-pyrimido[4,5-b][1,4]diazepin-6-one]	> 5.00
COc1cc(C(=O)NC2CCN(C)CC2)ccc1Nc1ncc2c(n1)N(C1CCCC1)CC(C)C(=O)N2 (stereo not drawn) [compound 17, 4-(9-Cyclopentyl-7-methyl-6-oxo-6,7,8,9-tetrahydro-5H-pyrimido[4,5-b][1,4]diazepin-2-ylamino)-3-methoxy-N-(1-methyl-piperidin-4-yl)-benzamide]	> 5.00
COc1cc(C(=O)NC2CCN(C)CC2)ccc1Nc1ncc2c(n1)N(C1CCCC1)C(C(C)C)CC(=O)N2 (stereo not drawn) [compound 19, 4-(9-Cyclopentyl-8-isopropyl-6-oxo-6,7,8,9-tetrahydro-5H-pyrimido[4,5-b][1,4]diazepin-2-ylamino)-3-methoxy-N-(1-methyl-piperidin-4-yl)-benzamide]	> 5.00
COc1cc(C(=O)NC2CCN(C)CC2)ccc1Nc1ncc2c(n1)N(C1CCCC1)C(C(C)C)CC(=O)N2C (stereo not drawn) [compound 23, 4-(9-Cyclopentyl-8-isopropyl-5-methyl-6-oxo-6,7,8,9-tetrahydro-5H-pyrimido[4,5-b][1,4]diazepin-2-ylamino)-3-methoxy-N-(1-methyl-piperidin-4-yl)-benzamide]	> 5.00
CCC(CC)N1CCC(=O)N(C)c2cnc(Nc3ccc(C(=O)NC4CCN(C)CC4)cc3OC)nc21 [compound 24, 4-[9-(1-Ethyl-propyl)-5-methyl-6-oxo-6,7,8,9-tetrahydro-5H-pyrimido[4,5-b][1,4]diazepin-2-ylamino]-3-methoxy-N-(1-methyl-piperidin-4-yl)-benzamide]	> 5.00
COc1cc(C(=O)NC2CCN(C)CC2)ccc1Nc1ncc2c(n1)N(C1CCOCC1)CCC(=O)N2C [compound 26, 3-Methoxy-4-[5-methyl-6-oxo-9-(tetrahydro-pyran-4-yl)-6,7,8,9-tetrahydro-5H-pyrimido[4,5-b][1,4]diazepin-2-ylamino]-N-(1-methyl-piperidin-4-yl)-benzamide]	> 6.00
CCN1C(=O)C(C)CN(C2CCCC2)c2nc(Nc3ccc(C(=O)NC4CCN(C)CC4)cc3OC)ncc21 (stereo not drawn) [compound 28, 4-(9-Cyclopentyl-5-ethyl-7-methyl-6-oxo-6,7,8,9-tetrahydro-5H-pyrimido[4,5-b][1,4]diazepin-2-ylamino)-3-methoxy-N-(1-methyl-piperidin-4-yl)-benzamide]	> 6.00
COc1cc(C(=O)NC2CCN(C)CC2)ccc1Nc1ncc2c(n1)N(Cc1ccccc1)CCC(=O)N2C [compound 29, 4-(9-Benzyl-5-methyl-6-oxo-6,7,8,9-tetrahydro-5H-pyrimido[4,5-b][1,4]diazepin-2-ylamino)-3-methoxy-N-(1-methyl-piperidin-4-yl)-benzamide]	> 5.00
COc1cc(C(=O)NC2CCN(C)CC2)ccc1Nc1ncc2c(n1)N(c1ccccc1)CCC(=O)N2C [compound 30, 3-Methoxy-4-(5-methyl-6-oxo-9-phenyl-6,7,8,9-tetrahydro-5H-pyrimido[4,5-b][1,4]diazepin-2-ylamino)-N-(1-methyl-piperidin-4-yl)-benzamide]	> 6.00
COc1cc(C(=O)NC2CCN(C)CC2)ccc1Nc1ncc2c(n1)N(C1CCCC1)CC1(CC1)C(=O)N2C [compound 31]	> 7.00
COc1cc(C(=O)NC2CCN(C)CC2)ccc1Nc1ncc2c(n1)N(C1CCCC1)C(C)CC(=O)N2 (stereo not drawn) [compound 34, 4-(9-Cyclopentyl-8-methyl-6-oxo-6,7,8,9-tetrahydro-5H-pyrimido[4,5-b][1,4]diazepin-2-ylamino)-3-methoxy-N-(1-methyl-piperidin-4-yl)-benzamide]	> 6.00
COc1cc(C(=O)NC2CCN(C)CC2)ccc1Nc1ncc2c(n1)N(C1CCCCC1)C(C)CC(=O)N2 (stereo not drawn) [compound 35, 4-(9-Cyclohexyl-8-methyl-6-oxo-6,7,8,9-tetrahydro-5H-pyrimido[4,5-b][1,4]diazepin-2-ylamino)-3-methoxy-N-(1-methyl-piperidin-4-yl)-benzamide]	> 6.00
COc1cc(C(=O)NC2CCN(C)CC2)ccc1Nc1ncc2c(n1)N(C1CCCC1)CCC(=O)N2 [compound 36, 4-(9-Cyclopentyl-6-oxo-6,7,8,9-tetrahydro-5H-pyrimido[4,5-b][1,4]diazepin-2-ylamino)-3-methoxy-N-(1-methyl-piperidin-4-yl)-benzamide]	> 5.00
CC1CC(=O)Nc2cnc(Nc3ccc(C(=O)NC4CCN(C)CC4)cc3)nc2N1C1CCCC1 (stereo not drawn) [compound 38, 4-(9-Cyclopentyl-8-methyl-6-oxo-6,7,8,9-tetrahydro-5H-pyrimido[4,5-b][1,4]diazepin-2-ylamino)-N-(1-methyl-piperidin-4-yl)-benzamide]	> 6.00

same assay, conditions: Table 3; read-out: PLK1 IC50

SMILES	pIC50
COc1cc(C(=O)N[C@H]2CC[C@@H](N3CCN(Cc4ccccc4)CC3)CC2)ccc1Nc1ncc2c(n1)N(C1CCCC1)CC1(CC1)C(=O)N2C [Compound 387, N-((cis)-4-(4-benzylpiperazin-1-yl)cyclohexyl)-4-(9′-cyclopentyl-5′-methyl-6′-oxo-5′,6′,8′,9′-tetrahydrospiro[cyclopropane-1,7′-pyrimido[4,5-b][1,4]diazepine]-2′-ylamino)-3-methoxybenzamide]	6.00 to 7.00
COc1cc(C(=O)N[C@H]2CC[C@H](N3CCOCC3)CC2)ccc1Nc1ncc2c(n1)N(C1CCCC1)CC(C)(C)C(=O)N2C [Compound 388, 4-(9-cyclopentyl-5,7,7-trimethyl-6-oxo-6,7,8,9-tetrahydro-5H-pyrimido[4,5-b][1,4]diazepin-2-ylamino)-3-methoxy-N-((trans)-4-morpholinocyclohexyl)benzamide]	> 7.00
COc1cc(C(=O)N[C@H]2CC[C@@H](N3CCOCC3)CC2)ccc1Nc1ncc2c(n1)N(C1CCCC1)CC(C)(C)C(=O)N2C [Compound 389, 4-(9-cyclopentyl-5,7,7-trimethyl-6-oxo-6,7,8,9-tetrahydro-5H-pyrimido[4,5-b][1,4]diazepin-2-ylamino)-3-methoxy-N-((cis)-4-morpholinocyclohexyl)benzamide]	6.00 to 7.00
COc1cc(C(=O)N[C@H]2CC[C@H](N3CCOCC3)CC2)ccc1Nc1ncc2c(n1)N(C1CCCC1)CC1(CC1)C(=O)N2C [Compound 390, 4-(9′-cyclopentyl-5′-methyl-6′-oxo-5′,6′,8′,9′-tetrahydrospiro[cyclopropane-1,7′-pyrimido[4,5-b][1,4]diazepine]-2′-ylamino)-3-methoxy-N-((trans)-4-morpholinocyclohexyl)benzamide]	> 7.00
COc1cc(C(=O)N[C@H]2CC[C@@H](N3CCOCC3)CC2)ccc1Nc1ncc2c(n1)N(C1CCCC1)CC1(CC1)C(=O)N2C [Compound 391, 4-(9′-cyclopentyl-5′-methyl-6′-oxo-5′,6′,8′,9′-tetrahydrospiro[cyclopropane-1,7′-pyrimido[4,5-b][1,4]diazepine]-2′-ylamino)-3-methoxy-N-((cis)-4-morpholinocyclohexyl)benzamide]	> 7.00

same assay, conditions: Table 4; read-out: PLK1 IC50

SMILES	pIC50
COc1cc(C(=O)NC2CCN(C)CC2)ccc1Nc1ncc2c(n1)N(C1CCCC1)CC1(CCC1)C(=O)N2C [WO 2007/095188 [I-64], reference compound]	> 7.00
COc1cc(C(=O)NC2CCN(C)CC2)ccc1Nc1ncc2c(n1)N(C1CCCC1)CC1(CC1)C(=O)N2C [WO 2007/095188 [I-76], reference compound]	> 7.00

same assay, conditions: Table 6

SMILES	pKi
COc1cc(C(=O)NN2CCCC2)ccc1Nc1ncc2c(n1)N(C1CCCC1)CC1(CC1)C(=O)N2C [Example [I-253] of WO 07/095188, reference compound]	> 8.00
COc1cc(C(=O)NN2CCN(C)CC2)ccc1Nc1ncc2c(n1)N(C1CCCC1)CC1(CC1)C(=O)N2C [[254]•HCl, 4-(9′-cyclopentyl-5′-methyl-6′-oxo-5′,6′,8′,9′-tetrahydrospiro[cyclopropane-1,7′-pyrimido[4,5-b][1,4]diazepine]-2′-ylamino)-3-methoxy-N-(4-methylpiperazin-1-yl)benzamide.HCl]	> 8.00
